Measured values from article PMC9732253, “Inhibition of the Phosphatidylinositol-3 Kinase Pathway Using Bimiralisib in Loss-of-Function NOTCH1-Mutant Head and Neck Cancer” (The Oncologist, 2022).
Several values for one entry are separate records, joined by “and”; a condition that tells them apart may be missing. Identical values can stand only once.

How the values were obtained:
[1] = test system: pathway targets in tumor tissue; design: method as in PMID 29660598; conditions: therapeutic doses; cited from earlier work
[2] = test system: other protein kinases; design: method as in PMID 28829592; conditions: biochemical assays; cited from earlier work
[3] = test system: NOTCH1-mutant HNSCC; conditions: one heavily pretreated patient with NOTCH1-mutant HNSCC, thoracic metastases; cited from earlier work
[4] = test system: NOTCH1-mutant HNSCC; experiment: Phase II single-arm trial, tumor response by RECIST 1.1 and survival; format: in vivo, human; conditions: for Median OS / Median PFS: all 8 patients; for Median PFS: 95% CI 39-199 days
Description: Adults with an Eastern Cooperative Oncology Group performance status of ≤2, measurable disease according to Response Evaluation Criteria in Solid Tumors (RECIST) version 1.1,[1] and histologically confirmed recurrent or metastatic (R/M) HNSCC for which no standard curative or life-prolonging therapy was available were eligible. All patients had already received platinum chemotherapy and α-PD1 immunotherapy unless unable to tolerate them. […] Safety was continuously monitored. Demographic and clinical characteristics were summarized using univariate statistics, including mean, median, and standard deviation or frequency and percentage. Objective response rate was summarized by frequency and percentage with a 2-sided 95% […] CI.[5] Duration of response, PFS, and overall survival were analyzed using the Kaplan-Meier method.[6] All statistical analyses were performed using R statistical software (version 3.6.3, R Core Team, 2020). Survival modeling was performed using the “survival” package.[7] […] Time to response was defined as the time from first study drug administration to the first documentation of response (complete or partial). Duration of response was defined as the time from the date of the first confirmed response to the first documentation of disease progression. PFS was defined as the time from first study drug administration to disease progression or death due to any cause. Overall survival was defined as the time from first study drug administration to death due to any cause.

[5] = number (%) of 6 patients evaluated for efficacy, RECIST 1.1

Nc1cc(C(F)(F)F)c(-c2nc(N3CCOCC3)nc(N3CCOCC3)n2)cn1 [Bimiralisib, 5-(4,6-dimorpholino-1,3,5-triazin-2-yl)-4-(trifluoromethyl)pyridin-2-amine]
Change of pathway targets in tumor tissue [1]: marked decreases | Inhibition of other protein kinases [2]: does not significantly inhibit | Duration of partial response [3]: 9 months | Response duration ([4]; 6 evaluable patients): 111 days | Objective response rate ([4]; 6 evaluable patients (1/6), RECIST 1.1, 140 mg orally on 2 consecutive days weekly, 95% CI 1-58%): 17% | Median TTP ([4]; CI: 83-inf): 167 days (CI: 83-inf) | Median OS [4]: 7 months | Median PFS [4]: 147 days (CI: 39-199) | Median PFS ([4]; listed as bimiralisib): 147 days | Median OS ([4]; 95% CI 39 days-infinity): 215 days (CI: 39-inf) | Median OS ([4]; 95% CI 39 days-infinity, listed as bimiralisib): 215 days | Response assessment, CR [4, 5]: 0 (0%) | Response assessment, PR [4, 5]: 1 (17%) | Reduction in the target lesion size ([4]; one patient with confirmed partial response): 49% | Day of progressive disease ([4]; one patient with progressive disease): 83 | Reduction in the target lesion size compared with baseline, final computed tomography scan ([4]; patient with confirmed partial response, in study until day 157): 45% | Day of disease progression ([4]; three patients with confirmed stable disease, one value each): 91 days and 138 days and 167 days
